Test results: patent US11780845B2 (Relay Therapeutics, Inc., priority 2019, dated 2023)
pIC50: −log10 of the molar value.

Key:
SNU-16 = test: Cell SNU-16 assay; type: cell-based; conditions: Homo sapiens, SNU-16, SNU-16 cells
FGFR2 = FGFR2 (Homo sapiens (Human), UniProt P21802); test: Biochemical FGFR2 Caliper assay
FGFR2, sequence (P21802 22-821): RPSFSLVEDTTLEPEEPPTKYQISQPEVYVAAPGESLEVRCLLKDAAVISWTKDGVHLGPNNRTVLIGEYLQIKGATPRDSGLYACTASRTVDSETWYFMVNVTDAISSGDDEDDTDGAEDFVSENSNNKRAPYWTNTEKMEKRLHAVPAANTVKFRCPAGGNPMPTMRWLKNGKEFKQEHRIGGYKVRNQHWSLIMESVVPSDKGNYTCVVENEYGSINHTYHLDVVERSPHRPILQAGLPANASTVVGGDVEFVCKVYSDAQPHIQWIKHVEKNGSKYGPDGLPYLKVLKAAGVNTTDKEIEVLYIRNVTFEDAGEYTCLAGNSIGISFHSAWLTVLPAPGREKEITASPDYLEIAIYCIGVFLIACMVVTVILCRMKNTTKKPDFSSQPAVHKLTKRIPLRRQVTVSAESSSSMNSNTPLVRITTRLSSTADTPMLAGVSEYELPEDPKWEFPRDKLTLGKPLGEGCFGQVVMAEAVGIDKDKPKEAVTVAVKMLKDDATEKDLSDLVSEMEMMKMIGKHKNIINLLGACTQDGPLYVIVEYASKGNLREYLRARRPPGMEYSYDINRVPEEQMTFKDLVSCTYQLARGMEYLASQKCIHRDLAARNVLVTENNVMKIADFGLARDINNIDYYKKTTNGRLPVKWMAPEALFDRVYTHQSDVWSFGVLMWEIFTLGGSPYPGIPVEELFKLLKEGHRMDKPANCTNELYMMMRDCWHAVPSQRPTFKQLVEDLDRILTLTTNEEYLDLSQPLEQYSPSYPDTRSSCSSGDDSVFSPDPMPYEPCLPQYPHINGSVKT

pIC50 (SNU-16) | pIC50 (FGFR2) | SMILES
6.00 to 6.60 | 6.00 to 6.60 | C=C(C)C(=O)Nc1ccc(-c2c(-c3ccc(-c4ccccn4)s3)c3c(N)ncnc3n2C)cc1 [Example 1278]
6.00 to 6.60 | 6.00 to 6.60 | C=C(C)C(=O)Nc1ccc(-c2c(-c3ccc4nc(C)sc4c3)c3c(N)ncnc3n2C)cc1 [Example 1279]
6.00 to 6.60 | 6.00 to 6.60 | C=C(C)C(=O)Nc1ccc(-c2c(-c3ccc4oc(C)nc4c3)c3c(N)ncnc3n2C)cc1 [Example 1280]
6.00 to 6.60 | 4.00 to 6.00 | C=C(C)C(=O)Nc1ccc(-c2c(-c3cnn(-c4ccccc4)c3)c3c(N)ncnc3n2C)cc1 [Example 1281]
4.00 to 6.00 | 4.00 to 6.00 | C=C(C)C(=O)Nc1ccc(-c2c(-c3ccc4ncccc4c3)c3c(N)ncnc3n2C)cc1 [Example 1282]
4.00 to 6.00 | 4.00 to 6.00 | C=C(C)C(=O)Nc1ccc(-c2c(-c3ccc4c(c3)NC(=O)C4(C)C)c3c(N)ncnc3n2C)cc1 [Example 1283]
4.00 to 6.00 | 4.00 to 6.00 | C=C(C)C(=O)Nc1ccc(-c2c(-c3cnc4ccccc4c3)c3c(N)ncnc3n2C)cc1 [Example 1284]
4.00 to 6.00 | 6.00 to 6.60 | C=C(C)C(=O)Nc1ccc(-c2c(-c3cnn(-c4ccc(F)cc4)c3)c3c(N)ncnc3n2C)cc1 [Example 1285]
6.00 to 6.60 | 6.00 to 6.60 | C=C(C)C(=O)Nc1ccc(-c2c(-c3ccc4cnccc4c3)c3c(N)ncnc3n2C)cc1 [Example 1286]
4.00 to 6.00 | 4.00 to 6.00 | C=C(C)C(=O)Nc1ccc(-c2c(C3=CCC(C#N)CC3)c3c(N)ncnc3n2C)cc1 (stereo not shown) [Example 1287]
4.00 to 6.00 | 4.00 to 6.00 | C=C(C)C(=O)Nc1ccc(-c2c(-c3ccc4occc4c3)c3c(N)ncnc3n2C)cc1 [Example 1288]
4.00 to 6.00 | 4.00 to 6.00 | C=C(C)C(=O)Nc1ccc(-c2c(-c3ccc4c(c3)COCC4)c3c(N)ncnc3n2C)cc1 [Example 1289]
4.00 to 6.00 | 4.00 to 6.00 | C=C(C)C(=O)Nc1ccc(-c2c(-c3ccc4[nH]nc(C)c4c3)c3c(N)ncnc3n2C)cc1 [Example 1290]
4.00 to 6.00 | 4.00 to 6.00 | C=C(C)C(=O)Nc1ccc(-c2c(-c3cnn(-c4cccc(C(F)(F)F)c4)c3)c3c(N)ncnc3n2C)cc1 [Example 1291]
4.00 to 6.00 | 4.00 to 6.00 | C=C(C)C(=O)Nc1ccc(-c2c(-c3ccc4c(c3)CCOC4)c3c(N)ncnc3n2C)cc1 [Example 1292]
6.00 to 6.60 | 6.60 to 7.00 | C=C(C)C(=O)Nc1ccc(-c2c(-c3cnc(-c4ccccc4)s3)c3c(N)ncnc3n2C)cc1 [Example 1293]
4.00 to 6.00 | 6.00 to 6.60 | C=C(C)C(=O)Nc1ccc(-c2c(-c3ccc4nc[nH]c4c3)c3c(N)ncnc3n2C)cc1 [Example 1294]
4.00 to 6.00 | 4.00 to 6.00 | C=C(C)C(=O)Nc1ccc(-c2c(-c3ccc(N)nc3)c3c(N)ncnc3n2C)cc1 [Example 1295]
6.00 to 6.60 | 6.60 to 7.00 | C=C(C)C(=O)Nc1ccc(-c2c(-c3ccc4[nH]ccc4c3)c3c(N)ncnc3n2C)cc1 [Example 1296]
6.00 to 6.60 | 6.00 to 6.60 | C=C(C)C(=O)Nc1ccc(-c2c(-c3ccc4cc[nH]c4c3)c3c(N)ncnc3n2C)cc1 [Example 1297]
4.00 to 6.00 | 6.00 to 6.60 | C=C(C)C(=O)Nc1ccc(-c2c(-c3cccc(O)c3)c3c(N)ncnc3n2C)cc1 [Example 1298]
4.00 to 6.00 | 4.00 to 6.00 | C=C(C)C(=O)Nc1ccc(-c2c(-c3cccc(N)c3)c3c(N)ncnc3n2C)cc1 [Example 1299]

pIC50 (SNU-16) | pIC50 (FGFR2) | SMILES
4.00 to 6.00 | 4.00 to 6.00 | C=C(C)C(=O)Nc1ccc(-c2c(-c3ccc(-c4cc(=O)[nH][nH]4)cc3)c3c(N)ncnc3n2C)cc1 [Example 1300]
4.00 to 6.00 | 4.00 to 6.00 | C=C(C)C(=O)Nc1ccc(-c2c(-c3ccc4cn[nH]c4c3)c3c(N)ncnc3n2C)cc1 [Example 1301]
4.00 to 6.00 | 4.00 to 6.00 | C=C(C)C(=O)Nc1ccc(-c2c(-c3ccc4nn[nH]c4c3)c3c(N)ncnc3n2C)cc1 [Example 1302]
4.00 to 6.00 | 4.00 to 6.00 | C=C(C)C(=O)Nc1ccc(-c2c(-c3ccc(NC(=O)OCC)nc3)c3c(N)ncnc3n2C)cc1 [Example 1303]
6.00 to 6.60 | 6.00 to 6.60 | C#Cc1ccc(-c2c(C3=CC[C@H](C(=O)N4CCCC45COC5)CC3)c3c(N)ncnc3n2C)c(C)n1 [Example 1304]
≥ 7.00 | > 7.00 | C#Cc1ncc(-c2c(-c3ccc(C(=O)N(C)CC(C)C)cc3)c3c(N)ncnc3n2C)c(C)c1F [Example 1305]
≥ 7.00 | > 7.00 | C#Cc1ncc(-c2c(-c3ccc(C(=O)NCC(C)C)cc3)c3c(N)ncnc3n2C)c(C)c1F [Example 1306]
6.00 to 6.60 | > 7.00 | CNC(=O)/C(C#N)=C/c1ccc(-c2c(-c3ccc(Oc4nccc(C)n4)c(F)c3)c3c(N)ncnc3n2C)c(C)c1 [Example 1309]
≥ 7.00 | > 7.00 | C#Cc1ncc(-c2c(-c3ccc(Oc4nccc(C)n4)cc3F)c3c(N)ncnc3n2C)c(C)c1F [Example 1310]
6.00 to 6.60 | > 7.00 | C=C1CCc2cc(-c3c(-c4ccc(Oc5nccc(C)n5)cc4)c4c(N)ncnc4n3C)ccc2C1=O [Example 1311]
6.60 to 7.00 | 6.00 to 6.60 | CC#Cc1cnc(-c2c(-c3ccc(Oc4nccc(C)n4)c(F)c3)c3c(N)ncnc3n2C)c(C)n1 [Example 1312]
≥ 7.00 | > 7.00 | C#Cc1ncc(-c2c(-c3ccc(Oc4nccc(C)n4)c(F)c3)c3c(N)ncnc3n2C)c(C)c1F [Example 1313]
≥ 7.00 | 6.60 to 7.00 | C#Cc1cnc(-c2c(-c3ccc(Oc4nccc(C)n4)c(F)c3)c3c(N)ncnc3n2C)c(CN(C)C)c1 [Example 1314]
6.00 to 6.60 | 6.60 to 7.00 | C=CC(=O)Nc1ccc(-c2c(-c3ccc(-n4cc(C)cn4)nc3)c3c(C)ncnc3n2C)cc1 [Example 1315]
6.00 to 6.60 | 6.00 to 6.60 | C=C(C)C(=O)Nc1ccc(-c2c(-c3ccc(-n4cc(CC)cn4)nc3)c3c(N)ncnc3n2C)cc1 [Example 1316]
≥ 7.00 | > 7.00 | C#Cc1cc(C)c(-c2c(C3=CC[C@H](C(=O)N4CCC[C@H]4C)CC3)c3c(N)ncnc3n2C)c(F)n1 [Example 1319]
6.00 to 6.60 | > 7.00 | C#Cc1nc2cc(-c3c(C4=CC[C@@H](C(=O)N5CCC[C@H]5COC)CC4)c4c(N)ncnc4n3C)ccc2[nH]1 [Example 1320]
≥ 7.00 | > 7.00 | C#Cc1cc(C)c(-c2cn3ncnc(N)c3c2-c2ccc(Oc3nccc(C)n3)c(F)c2)cn1 [Example 1321]
≥ 7.00 | > 7.00 | C#Cc1cc(C)c(-c2c(-c3ccc(Oc4nccc(C)n4)c(F)c3)c3c(N)ncnc3n2C)c(F)n1 [Example 1322]
4.00 to 6.00 | 4.00 to 6.00 | C=C(C)C(=O)Nc1ccc(-c2c(-c3ccc4c(C(=O)NC5CC5)n[nH]c4c3)c3c(N)ncnc3n2C)cc1 [Example 1323]
4.00 to 6.00 | 4.00 to 6.00 | C=C(C)C(=O)Nc1ccc(-c2c(-c3ccc4c(C(=O)NCC5CC5)n[nH]c4c3)c3c(N)ncnc3n2C)cc1 [Example 1324]
6.00 to 6.60 | 6.00 to 6.60 | C#Cc1cc(C)c(-c2c(C3=CC[C@H](C(=O)N4CCCC45CC5)CC3)c3c(N)ncnc3n2C)cn1 [Example 1325]
